Assay results from patent US20250368637A1, “SOLID-STATE FORMS OF N-(2-(4-CYANOTHIAZOLIDIN-3-YL)-2-OXOETHYL)-6-MORPHOLINOQUINOLINE-4-CARBOXAMIDE” (AstraZeneca AB, priority 2022, published 2025).
pIC50: −log10 of the molar value.

What was measured:
[1] = biological target: hFAP (M39-A757) (Homo sapiens (Human), UniProt Q12884); assay: hFAP binding assay (surface plasmon resonance); details: SPR, 20° C.
Method: The hFAP protein used in the Examples was either commercially sourced or produced in insect cells as recombinant hFAP (Gp67-6HN-TEV-FAP (M39-A757), MW 89086.7 Da, or cd33-FAP (27-757)-6His, MW85926 Da).
Immobilization of hFAP (M39-A757) on a CMD200M sensor chip (Xantec) was performed using standard amine coupling procedure in immobilization buffer (10 mM HEPES, 150 mM NaCl, 0.05% Tween20, pH 7.4). The surface was washed with 10 mM NaOH, IM NaCl before being activated with EDC/NHS (GE Healthcare), followed by immobilization of hFAP (in 10 mM Acetate pH 5.0). Finally, the surface was deactivated by ethanolamine. Immobilization levels of hFAP were around 4000-6000 RU. The reference spot was treated as described, omitting the injection of hFAP. Compound concentration series were injected over the immobilized protein in increasing concentrations (2-500 nM) using single cycle kinetics in running buffer (20 mM TRIS, 150 mM NaCl, 0.05% Tween20, 1% DMSO, pH 7.4). Interaction models were fitted globally to the experimental traces, enabling determination of kon, koff and Kd.

[2] = biological target: FAP Cyno Plasma (Macaca fascicularis, UniProt A0A2K5VGH4); assay: FAP plasma inhibition assay, cynomolgus plasma; assay type: biochemical; details: cynomolgus plasma dilution 1:40
FAP Cyno Plasma, sequence (A0A2K5VGH4 1-745): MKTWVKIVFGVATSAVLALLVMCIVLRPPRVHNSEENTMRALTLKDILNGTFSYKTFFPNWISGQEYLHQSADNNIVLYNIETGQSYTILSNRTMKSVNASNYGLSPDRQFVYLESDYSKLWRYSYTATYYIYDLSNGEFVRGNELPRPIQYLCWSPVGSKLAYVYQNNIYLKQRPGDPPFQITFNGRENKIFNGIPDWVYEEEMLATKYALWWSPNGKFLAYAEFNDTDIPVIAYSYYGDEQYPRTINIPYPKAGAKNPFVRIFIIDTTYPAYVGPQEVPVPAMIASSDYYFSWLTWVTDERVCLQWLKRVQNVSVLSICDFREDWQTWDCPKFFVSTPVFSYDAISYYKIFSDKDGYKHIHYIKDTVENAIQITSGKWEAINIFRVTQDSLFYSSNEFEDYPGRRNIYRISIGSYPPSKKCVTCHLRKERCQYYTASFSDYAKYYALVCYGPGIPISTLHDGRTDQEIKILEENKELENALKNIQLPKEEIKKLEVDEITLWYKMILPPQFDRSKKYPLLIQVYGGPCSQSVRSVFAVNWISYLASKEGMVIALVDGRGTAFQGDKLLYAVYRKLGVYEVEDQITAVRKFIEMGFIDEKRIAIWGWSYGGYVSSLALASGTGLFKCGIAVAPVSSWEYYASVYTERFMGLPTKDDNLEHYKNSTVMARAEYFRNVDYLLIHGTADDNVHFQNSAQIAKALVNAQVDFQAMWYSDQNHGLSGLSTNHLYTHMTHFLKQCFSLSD
Method: Plasma (anticoagulant K2EDTA) was used as the enzyme source: Human plasma (Pooled from AZ Biobank), Mouse plasma (AZ AST Biobank), and Cynomolgus plasma (BioIVT, #NHP00PLK2FNN, lot CYN222895). 384-Well black fluotrack PS plates (Greiner 781076) were used. 20 μL diluted plasma (Cynomolgus and Human plasma dilution 1:40, Mouse plasma dilution 1:67) in buffer (PBS, 0.1% BSA) was added to 0.6 μL compounds (in DMSO). Compounds were tested using 10 CR, 3-fold dilution series from 500 nM FAC. Two replicates for each assay point were run on the same plate. A fluorescence blank read was taken before substrate addition. […] Plates were incubated for 40 min at rt in the dark. […] IC50 values were determined by plotting % inhibition versus log compound concentration.

hFAP (M39-A757), sequence (Q12884 39-757): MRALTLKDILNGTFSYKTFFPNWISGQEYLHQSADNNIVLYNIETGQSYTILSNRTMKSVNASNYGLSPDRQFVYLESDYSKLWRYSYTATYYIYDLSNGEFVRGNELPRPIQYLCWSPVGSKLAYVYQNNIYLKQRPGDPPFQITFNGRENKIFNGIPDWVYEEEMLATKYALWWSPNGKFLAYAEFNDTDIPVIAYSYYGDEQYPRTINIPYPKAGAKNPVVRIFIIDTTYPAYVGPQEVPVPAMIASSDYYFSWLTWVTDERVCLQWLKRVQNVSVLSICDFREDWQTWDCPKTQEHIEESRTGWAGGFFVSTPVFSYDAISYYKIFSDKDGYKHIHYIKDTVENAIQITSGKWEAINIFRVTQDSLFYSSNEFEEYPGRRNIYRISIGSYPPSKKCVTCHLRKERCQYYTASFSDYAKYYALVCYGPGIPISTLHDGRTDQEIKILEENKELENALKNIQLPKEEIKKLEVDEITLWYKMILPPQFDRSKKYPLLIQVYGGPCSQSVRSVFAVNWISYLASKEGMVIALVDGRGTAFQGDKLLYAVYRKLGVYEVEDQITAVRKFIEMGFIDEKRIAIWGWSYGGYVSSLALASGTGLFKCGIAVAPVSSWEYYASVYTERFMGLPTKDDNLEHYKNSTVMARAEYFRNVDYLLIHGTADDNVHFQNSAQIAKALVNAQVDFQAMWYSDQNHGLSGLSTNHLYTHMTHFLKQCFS

Compound: N#C[C@@H]1CSCN1C(=O)CNC(=O)c1ccnc2ccc(N3CCOCC3)cc12 [(R)—N-(2-(4-Cyanothiazolidin-3-yl)-2-oxoethyl)-6-morpholinoquinoline-4-carboxamide]
- hFAP Binding assay k(off) [1]: k(off) = 0.000046 1/s^3
- hFAP Binding assay k(on) [1]: k(on) = 4900000 M^−1s^−1
- pIC50 [2]: 9.40
